Source: patent US20230295162A1 (EÖTVÖS LORÁND TUDOMÁNYEGYETEM, priority 2020, published 2023)
Where two headings read alike, the source gives them in different places.

Assays:
[1] = system: PANC-1 (human pancreatic carcinoma) cells; test: Impedance-based viability assay (xCELLigence SP), long treatment; type: cell-based; details: 72 h, read-out: cytotoxicity expressed in IC50, PANC-1
Excerpt: (Gibco®/Invitrogen Corporation, New York, NY, USA).
Data obtained from each experiment represent mathematical averages.

[2] = system: EBC-1 lung cancer cell line; test: High-throughput screening, CellTiter-Glo cell viability assay at 100 nM; type: cell-based, human; details: Homo sapiens, EBC-1, HTS, compounds at 100 nM, 72 h, read-out: cytotoxicity expressed in IC50, EBC-1 (results of High throughput screening)
[3] = system: H2228 lung cancer cell line; test: as above; type: cell-based, human; details: Homo sapiens, NCI-H2228, HTS, compounds at 100 nM, 72 h, read-out: cytotoxicity expressed in IC50, H2228 (results of High throughput screening)
[4] = system: Capan-1 (pancreas, adenocarcinoma) cells; test: Cell viability assay, CellTiter-Glo (Example 21); type: cell-based, human; details: 72 h treatment
Experimental: (§1) Effect of the selected compounds on cancer cell viability was measured via CellTiter-Glo® luminescent cell viability assay (Promega, Madison, WI, USA) according to the manufacturer's instructions. Cells were plated onto a flat-bottomed, white 96 well plate (BRANDplates®, cat. no.: 781965). Density of the seeded cells was optimized based on their size and growth rate, as the follows: Panc-1:750 cells/well; DU 145, PC-3, Capan-1, MIA PaCa-2, SCC-25, FaDu and EBC-1: 1000 cells/well; LNCaP, Detroit 562, MDA-MB-231 and MDA-MB-453 1500 cells/well. […] After the treatment, the luminescence signal was recorded using a microplate reader (BioTek Synergy 2 Multi-Mode Reader, BioTek, Winooski, VT, USA). Dose-response curves were generated by GraphPad Prism 8.4.2. software using a non-linear regression model (variable slope, four parameters), (see FIGS. 12-51).

[5] = system: DU 145 (prostate, carcinoma) cells; test: Cell viability assay, CellTiter-Glo (Example 21); type: cell-based, human; details: 72 h
Experimental: as §1

[6] = system: Detroit 562 (pharynx, carcinoma) cells; test: Cell viability assay, CellTiter-Glo (Example 21); type: cell-based, human; details: 72 h treatment
Experimental: as §1

[7] = system: EBC-1 (lung, squamous cell carcinoma) cells; test: Cell viability assay, CellTiter-Glo (Example 21); type: cell-based, human; details: 72 h treatment
Experimental: as §1

[8] = system: FaDu (pharynx, squamous cell carcinoma) cells; test: Cell viability assay, CellTiter-Glo (Example 21); type: cell-based, human; details: 72 h treatment
Experimental: as §1

[9] = system: LNCaP (prostate, carcinoma) cells; test: Cell viability assay, CellTiter-Glo (Example 21); type: cell-based, human; details: 72 h
Experimental: as §1

[10] = system: MDA-MB-231 (breast, adenocarcinoma) cells; test: Cell viability assay, CellTiter-Glo (Example 21); type: cell-based, human; details: 72 h treatment
Experimental: as §1

[11] = system: MDA-MB-453 (breast, carcinoma) cells; test: Cell viability assay, CellTiter-Glo (Example 21); type: cell-based, human; details: 72 h treatment
Experimental: as §1

[12] = system: MIA PaCa-2 (pancreas, carcinoma) cells; test: Cell viability assay, CellTiter-Glo (Example 21); type: cell-based, human; details: 72 h treatment
Experimental: as §1

[13] = system: PC-3 (prostate, adenocarcinoma) cells; test: Cell viability assay, CellTiter-Glo (Example 21); type: cell-based, human; details: 72 h treatment
Experimental: as §1

[14] = system: Panc-1 (pancreas, carcinoma) cells; test: Cell viability assay, CellTiter-Glo (Example 21); type: cell-based, human; details: 72 h treatment
Experimental: as §1

[15] = system: SCC-25 (tongue, squamous cell carcinoma) cells; test: Cell viability assay, CellTiter-Glo (Example 21); type: cell-based, human; details: 72 h treatment
Experimental: as §1

Panc-1 human cell line = test: Cytotoxicity on Panc-1, xCELLigence SP, IC50 after 24 h, 48 h, 72 h and 96 h (Example 22)
Detroit 562 cell line = test: Additional in vitro IC50 tests (Table 3); type: cell-based; details: Homo sapiens
Experimental: (§2) Cell lines were maintained according to the instructions provided by ATCC (https://www.lgcstandards-atcc.org/) in a 5% CO2 humidified incubator maintained at 37° C. temperature. Effects of compounds on cell viability were measured via CellTiter-Glo® luminescent cell viability assay (Promega, Madison, WI, USA) Cells were plated at 1000 cells/well onto a flat-bottomed, white 96 well plate (BRANDplates, cat. no.: 781965). […] After the treatment, medium was removed and CellTiter-Glo® reagent was added. The luminescence signal was recorded using a microplate reader (BioTek Synergy 2 Multi-Mode Reader, BioTek, Winooski, VT, USA).
(§3) Cell viability data (% of untreated control cells) was evaluated with Microsoft Excel. Dose-response curves (using a non-linear regression model, log (inhibitor) vs response, variable slope) were generated and IC50 values were determined using Graph Pad Prism 5.02 software (GraphPad Software, San Diego, CA, USA).

EBC-1 cell line = test: Additional in vitro IC50 tests (Table 3); type: cell-based; details: Homo sapiens
Experimental: as §2, §3

Fadu cell line = test: Additional in vitro IC50 tests (Table 3); type: cell-based; details: Homo sapiens
Experimental: as §2, §3

H2228 cell line = test: Additional in vitro IC50 tests (Table 3); type: cell-based; details: Homo sapiens, NCI-H2228
Experimental: as §2, §3

SCC-25 cell line = test: Additional in vitro IC50 tests (Table 3); type: cell-based; details: Homo sapiens
Experimental: as §2, §3

[16] = system: Panc1 pancreatic cancer cell line; test: CellTiter-Glo IC50 (Example 19); type: cell-based; details: Homo sapiens, PANC-1, 72 h
Experimental: Some representative imipridones and ONC212 as reference were further tested on the following human malignant cell lines: PC3 and LNCap (prostate carcinoma); BxPC3, MiaPaCa2 and Panc1 (pancreatic cancer); A549, HCC827, H1993 and H520 (lung carcinoma); MDA-MB-453 and MDA-MB-231 (breast cancer) (see Table 2 and FIGS. 1-11).
as §2, §3

## O=C1C2=C(CCN(Cc3cccc(F)c3)C2)N2CCN=C2N1Cc1ccc(F)cc1 [I/6, reference compound]
[1]
  IC50: < 100 nM
[2]
  IC50: < 100 nM
[3]
  IC50: < 100 nM
[4]; 3.7 nM
  Capan-1 (pancreas, adenocarcinoma) cell viability (% of control): 105.9 ± 7.8 % of control
[4]; 11.1 nM
  Capan-1 (pancreas, adenocarcinoma) cell viability (% of control): 106.0 ± 8.0 % of control
[4]; 100 nM
  Capan-1 (pancreas, adenocarcinoma) cell viability (% of control): 40.1 ± 3.7 % of control
[4]; 300 nM
  Capan-1 (pancreas, adenocarcinoma) cell viability (% of control): 37.4 ± 3.5 % of control
[5]; 3.7 nM
  DU 145 cell viability: 96.8 ± 3.7 % of control
[5]; 11.1 nM
  DU 145 cell viability: 93.4 ± 2.2 % of control
[5]; 100 nM
  DU 145 cell viability: 8.0 ± 1.4 % of control
[5]; 300 nM
  DU 145 cell viability: 7.9 ± 1.6 % of control
[6]; 3.7 nM
  Detroit 562 (pharynx, carcinoma) cell viability (% of control): 99.8 ± 6.4 % of control
[6]; 11.1 nM
  Detroit 562 (pharynx, carcinoma) cell viability (% of control): 50.9 ± 15.2 % of control
[6]; 100 nM
  Detroit 562 (pharynx, carcinoma) cell viability (% of control): 31.6 ± 2.1 % of control
[6]; 300 nM
  Detroit 562 (pharynx, carcinoma) cell viability (% of control): 33.0 ± 3.4 % of control
[7]; 3.7 nM
  EBC-1 (lung, squamous cell carcinoma) cell viability (% of control): 101.0 ± 19.5 % of control
[7]; 11.1 nM
  EBC-1 (lung, squamous cell carcinoma) cell viability (% of control): 101.7 ± 3.3 % of control
[7]; 100 nM
  EBC-1 (lung, squamous cell carcinoma) cell viability (% of control): 25.1 ± 0.3 % of control
[7]; 300 nM
  EBC-1 (lung, squamous cell carcinoma) cell viability (% of control): 24.1 ± 2.4 % of control
[8]; 3.7 nM
  FaDu (pharynx, squamous cell carcinoma) cell viability (% of control): 97.9 ± 3.9 % of control
[8]; 11.1 nM
  FaDu (pharynx, squamous cell carcinoma) cell viability (% of control): 97.8 ± 5.2 % of control
[8]; 100 nM
  FaDu (pharynx, squamous cell carcinoma) cell viability (% of control): 27.3 ± 5.2 % of control
[8]; 300 nM
  FaDu (pharynx, squamous cell carcinoma) cell viability (% of control): 25.2 ± 4.6 % of control
[9]; 3.7 nM
  LNCaP cell viability: 101.8 ± 5.6 % of control
[9]; 11.1 nM
  LNCaP cell viability: 97.9 ± 7.3 % of control
[9]; 100 nM
  LNCaP cell viability: 15.4 ± 2.0 % of control
[9]; 300 nM
  LNCaP cell viability: 14.4 ± 0.7 % of control
[10]; 3.7 nM
  MDA-MB-231 (breast, adenocarcinoma) cell viability (% of control): 100.5 ± 5.4 % of control
[10]; 11.1 nM
  MDA-MB-231 (breast, adenocarcinoma) cell viability (% of control): 99.4 ± 4.1 % of control
[10]; 100 nM
  MDA-MB-231 (breast, adenocarcinoma) cell viability (% of control): 57.7 ± 3.8 % of control
[10]; 300 nM
  MDA-MB-231 (breast, adenocarcinoma) cell viability (% of control): 57.4 ± 1.7 % of control
[11]; 3.7 nM
  MDA-MB-453 (breast, carcinoma) cell viability (% of control): 113.6 ± 9.8 % of control
[11]; 11.1 nM
  MDA-MB-453 (breast, carcinoma) cell viability (% of control): 103.7 ± 10.4 % of control
[11]; 100 nM
  MDA-MB-453 (breast, carcinoma) cell viability (% of control): 33.9 ± 1.3 % of control
[11]; 300 nM
  MDA-MB-453 (breast, carcinoma) cell viability (% of control): 32.0 ± 1.1 % of control
[12]; 3.7 nM
  MIA PaCa-2 (pancreas, carcinoma) cell viability (% of control): 101.6 ± 10.8 % of control
[12]; 11.1 nM
  MIA PaCa-2 (pancreas, carcinoma) cell viability (% of control): 110.7 ± 6.4 % of control
[12]; 100 nM
  MIA PaCa-2 (pancreas, carcinoma) cell viability (% of control): 21.6 ± 9.1 % of control
[12]; 300 nM
  MIA PaCa-2 (pancreas, carcinoma) cell viability (% of control): 19.5 ± 7.5 % of control
[13]; 3.7 nM
  PC-3 (prostate, adenocarcinoma) cell viability (% of control): 103.6 ± 14.4 % of control
[13]; 11.1 nM
  PC-3 (prostate, adenocarcinoma) cell viability (% of control): 108.7 ± 7.7 % of control
[13]; 100 nM
  PC-3 (prostate, adenocarcinoma) cell viability (% of control): 35.3 ± 0.5 % of control
[13]; 300 nM
  PC-3 (prostate, adenocarcinoma) cell viability (% of control): 34.1 ± 2.0 % of control
[14]; 3.7 nM
  Panc-1 (pancreas, carcinoma) cell viability (% of control): 107.8 ± 16.0 % of control
[14]; 11.1 nM
  Panc-1 (pancreas, carcinoma) cell viability (% of control): 109.1 ± 4.2 % of control
[14]; 100 nM
  Panc-1 (pancreas, carcinoma) cell viability (% of control): 57.1 ± 0.1 % of control
[14]; 300 nM
  Panc-1 (pancreas, carcinoma) cell viability (% of control): 57.2 ± 3.2 % of control
[15]; 3.7 nM
  SCC-25 (tongue, squamous cell carcinoma) cell viability (% of control): 101.8 ± 4.3 % of control
[15]; 11.1 nM
  SCC-25 (tongue, squamous cell carcinoma) cell viability (% of control): 96.2 ± 4.8 % of control
[15]; 100 nM
  SCC-25 (tongue, squamous cell carcinoma) cell viability (% of control): 42.5 ± 1.8 % of control
[15]; 300 nM
  SCC-25 (tongue, squamous cell carcinoma) cell viability (% of control): 41.5 ± 3.1 % of control
Panc-1 human cell line; PANC-1, 72 h, read-out: IC50 (72 h) [nM]
  IC50: 126 ± 5.96 nM
Panc-1 human cell line; PANC-1, 96 h, read-out: IC50 (96 h) [nM]
  IC50: 75.5 ± 6.76 nM

## O=C1C2=C(CCN(Cc3cc(F)cc(F)c3)C2)N2CCN=C2N1Cc1cccc(Cl)c1 [I/125, 4-(3-Chlorobenzyl)-7-(3,5-difluorobenzyl)-2,4,6,7,8,9-hexahydroimidazo[1,2-a]pyrido[3,4-e]pyrimidin-5(1H)-one]
other
  melting point: 204.8 °C

## Nc1cccc(CN2C(=O)C3=C(CCN(Cc4cc(F)cc(F)c4)C3)N3CCN=C23)c1 [I/126, 4-(3-Aminobenzyl)-7-(3,5-difluorobenzyl)-2,4,6,7,8,9-hexahydroimidazo[1,2-a]pyrido[3,4-e]pyrimidin-5(1H)-one]
Detroit 562 cell line
  IC50: 103 nM
EBC-1 cell line
  IC50: 288 nM
Fadu cell line
  IC50: 290 nM
H2228 cell line
  IC50: 269 nM
SCC-25 cell line
  IC50: > 300 nM
other
  melting point: 114.5 °C

## [N-]=[N+]=Nc1cccc(CN2C(=O)C3=C(CCN(Cc4cc(F)cc(F)c4)C3)N3CCN=C23)c1 [I/127, 4-(3-Azidobenzyl)-7-(3,5-difluorobenzyl)-2,4,6,7,8,9-hexahydroimidazo[1,2-a]pyrido[3,4-e]pyrimidin-5(1H)-one]
Detroit 562 cell line
  IC50: 10 nM
EBC-1 cell line
  IC50: 16 nM
Fadu cell line
  IC50: 16 nM
H2228 cell line
  IC50: 15 nM
SCC-25 cell line
  IC50: 21 nM
other
  melting point: 158 °C

## O=C1C2=C(CCN(Cc3cc(F)cc(F)c3)C2)N2CCN=C2N1[C@@H](CO)c1ccc(F)cc1 [I/129 (R)]
[16]
  IC50: 15 nM
other
  melting point: 76 °C

## O=C1C2=C(CCN(Cc3cc(F)cc(F)c3)C2)N2CCN=C2N1[C@H](CO)c1ccc(F)cc1 [I/129 (S)]
[16]
  IC50: 265 nM
Detroit 562 cell line
  IC50: 120 nM
EBC-1 cell line
  IC50: > 300 nM
Fadu cell line
  IC50: 150 nM
H2228 cell line
  IC50: 300 nM
SCC-25 cell line
  IC50: > 300 nM
